# Assay results as given in ChEMBL document CHEMBL1129417, “Glucose transport-enhancing and hypoglycemic activity of 2-methyl-2-phenoxy-3-phenylpropanoic acids” (1996).
# Columns and labels:
# Mus musculus [1] = test: Compound was tested in vivo for hypoglycemic activity expressed as Glucose lowering relative to positive control in 6-8 week old C57BL/6J ob/ob mouse at 50 mg/kg; assay type: functional
# Mus musculus [2] = test: In vivo hypoglycemic activity expressed as glucose lowering relative to positive control in 6-8 week old C57BL/6J ob/ob mouse at 5 mg/kg.; assay type: functional
# Mus musculus [3] = test: In vivo hypoglycemic activity expressed as glucose lowering relative to positive control in 6-8 week old C57BL/6J ob/ob mouse at 10 mg/kg; assay type: functional
# L6 [4] = test: compound was evaluated for their acute effects in vitro by measuring 2-Deoxyglucose (2DG) uptake in vehicle treated L6 […] at 60 uM dose.; assay type: functional
# 3T3-L1 [5] = test: In vitro measurements 2-Deoxyglucose (2DG) uptake in vehicle treated 3T3-L1 adipocytes at 100 uM dose.; assay type: functional
# Rattus norvegicus [6] = species on record: Rattus norvegicus; test: Inhibition of gluconeogenesis in rat; assay type: functional; conditions: Rattus norvegicus; read-out: ED50
# Mus musculus [7] = test: compound was tested in vivo for hypoglycemic activity expressed as Glucose lowering relative to positive control in 6-8 week old C57BL/6J ob/ob mouse at 50 mg/kg; assay type: functional
# Rattus norvegicus [8] = species on record: Rattus norvegicus; test: Percentage inhibition of basal stimulated Gluconeogenesis in Isolated Rat Hepatocytes in vitro; assay type: functional, Hepatocyte
# Rattus norvegicus [9] = species on record: Rattus norvegicus; test: Percentage inhibition of Glucagon- stimulated Gluconeogenesis in Isolated Rat Hepatocytes in vitro; assay type: functional, Hepatocyte
# L6 [10] = test: Compound was evaluated for their acute effects in vitro by measuring 2-Deoxyglucose (2DG) uptake in vehicle treated L6 […] at 1 uM dose.; assay type: functional
# L6 [11] = test: Compound was evaluated for their acute effects in vitro by measuring 2-Deoxyglucose (2DG) uptake in vehicle treated L6 […] at 100 uM dose.; assay type: functional
# Mus musculus [12] = test: compound was tested in vivo for hypoglycemic activity expressed as Glucose lowering relative to positive control in 6-8 week old C57BL/6J ob/ob mouse at 20 mg/kg; assay type: functional
# Mus musculus [13] = test: Net body weight delta (g)when compound given at 5 mg/kg/day in pair feeding study with ob/ob mice; assay type: functional
# 3T3-L1 [14] = test: In vitro measurements of 2-Deoxyglucose (2DG) uptake in vehicle treated 3T3-L1 adipocytes at 60 uM dose.; assay type: functional
# L6 [15] = test: Compound was evaluated for their acute effects in vitro by measuring 2-Deoxyglucose (2DG) uptake in vehicle treated L6 […] at 10 uM dose.; assay type: functional
# Mus musculus [16] = test: Glucose(mg/dl) level, on day 5 when compound given at 5 mg/kg/day in pair feeding study with ob/ob mice; assay type: functional
# 3T3-L1 [17] = test: Acute effects in vitro by measuring 2-deoxyglucose (2DG) uptake in vehicle treated 3T3-L1 adipocytes at 30 uM dose.; assay type: functional
# 3T3-L1 [18] = test: compound was evaluated for their acute effects in vitro by measuring 2-Deoxyglucose (2DG) uptake in vehicle treated 3T3-L1 adipocytes at concentration of 3 micro M; assay type: functional
# 3T3-L1 [19] = test: In vitro by measurements of 2-Deoxyglucose (2DG) uptake in vehicle treated 3T3-L1 adipocytes at 3 uM dose.; assay type: functional
# Rattus norvegicus [20] = species on record: Rattus norvegicus; test: Percentage inhibition of Glucagon stimulated Gluconeogenesis in Isolated Rat Hepatocytes in vitro; assay type: functional, Hepatocyte
# Mus musculus [21] = test: Basal glucose(mg/dl) level when compound given at 5 mg/kg/day in pair feeding study with ob/ob mice; assay type: functional
# L6 [22] = test: Compound was evaluated for their acute effects in vitro by measuring 2-Deoxyglucose (2DG) uptake in vehicle treated L6 […] at 30 uM dose.; assay type: functional
# Mus musculus [23] = test: compound was tested in vivo for hypoglycemic activity expressed as Glucose lowering relative to positive control in 6-8 week old C57BL/6J ob/ob mouse at 25 mg/kg; assay type: functional
# Mus musculus [24] = test: Food intake (g/5 mice/ 5 days) when compound given at 5 mg/kg/day in pair feeding study with ob/ob mice; assay type: functional
# 3T3-L1 [25] = test: compound was evaluated for their acute effects in vitro by measuring 2-Deoxyglucose (2DG) uptake in vehicle treated 3T3-L1 adipocytes at 1 uM dose.; assay type: functional
# L6 [26] = test: Compound was evaluated for their acute effects in vitro by measuring 2-Deoxyglucose (2DG) uptake in vehicle treated L6 […] at 60 uM dose.; assay type: functional
# 3T3-L1 [27] = test: compound was evaluated for their acute effects in vitro by measuring 2-Deoxyglucose (2DG) uptake in vehicle treated 3T3-L1 adipocytes at concentration of 30 micro M; assay type: functional
# 3T3-L1 [28] = test: Acute effects in vitro by measuring 2-deoxyglucose (2DG) uptake in vehicle treated 3T3-L1 adipocytes at 10 uM dose.; assay type: functional
# 3T3-L1 [29] = test: compound was evaluated for their acute effects in vitro by measuring 2-Deoxyglucose (2DG) uptake in vehicle treated 3T3-L1 adipocytes at concentration of 10 micro M; assay type: functional
# L6 [30] = test: Compound was evaluated for their acute effects in vitro by measuring 2-Deoxyglucose (2DG) uptake in vehicle treated L6 […] at 3 uM dose.; assay type: functional
# Mus musculus [31] = test: In vivo hypoglycemic activity expressed as glucose lowering relative to positive control in 6-8 week old C57BL/6J ob/ob mouse at 1 mg/kg.; assay type: functional
# 3T3-L1 [32] = test: compound was evaluated for their acute effects in vitro by measuring 2-Deoxyglucose (2DG) uptake in vehicle treated 3T3-L1 adipocytes at 0.3 uM dose.; assay type: functional
# 3T3-L1 [33] = test: compound was evaluated for their acute effects in vitro by measuring 2-Deoxyglucose (2DG) uptake in vehicle treated 3T3-L1 adipocytes at 10 uM dose.; assay type: functional
# Mus musculus [34] = test: compound was tested in vivo for hypoglycemic activity expressed as Glucose lowering relative to positive control in 6-8 week old C57BL/6J ob/ob mouse at 5 mg/kg; assay type: functional
# Mus musculus [35] = test: compound was tested in vivo for hypoglycemic activity expressed as Glucose lowering relative to positive control in 6-8 week old C57BL/6J ob/ob mouse at 2.5 mg/kg; assay type: functional
# Mus musculus [36] = test: compound was tested in vivo for hypoglycemic activity expressed as Glucose lowering relative to positive control in 6-8 week old C57BL/6J ob/ob mouse; assay type: functional
# Mus musculus [37] = test: compound was tested in vivo for hypoglycemic activity in 6-8 week old C57BL/6J ob/ob mouse; assay type: functional
# L6 [38] = test: compound was evaluated for their acute effects in vitro by measuring 2-Deoxyglucose (2DG) uptake in vehicle treated L6 […] at 3 uM dose.; assay type: functional
# L6 [39] = test: compound was evaluated for their acute effects in vitro by measuring 2-Deoxyglucose (2DG) uptake in vehicle treated L6 […] at 10 uM dose.; assay type: functional
# L6 [40] = test: compound was evaluated for their acute effects in vitro by measuring 2-Deoxyglucose (2DG) uptake in vehicle treated L6 […] at 30 uM dose.; assay type: functional
# Mus musculus [41] = test: compound was tested in vivo for hypoglycemic activity in 6-8 week old C57BL/6J ob/ob mouse at 0.5 mg/kg; assay type: functional
# 3T3-L1 [42] = test: compound was evaluated for their acute effects in vitro by measuring 2-Deoxyglucose (2DG) uptake in vehicle treated 3T3-L1 adipocytes at 300 uM dose.; assay type: functional
# Mus musculus [43] = test: compound was tested in vivo for hypoglycemic activity expressed as Glucose lowering relative to positive control in 6-8 week old C57BL/6J ob/ob mouse at 0.5 mg/kg; assay type: functional
# Mus musculus [44] = test: compound was tested in vivo for hypoglycemic activity expressed as Glucose lowering relative to positive control in 6-8 week old C57BL/6J ob/ob mouse at 0.1 mg/kg; assay type: functional
compound,measurement,setting,value
CC(C)c1ccc(OC(Cc2ccc(C(F)(F)F)cc2)C(=O)O)cc1 (stereo unspecified),Hypoglycemic activity,Mus musculus [1],74%
same,Hypoglycemic activity,Mus musculus [2],30%
same,Hypoglycemic activity,Mus musculus [3],42%
same,Basal uptake,L6 [4],104%
same,Basal uptake,3T3-L1 [5],605%
same,ED50,Rattus norvegicus [6],10 mg/kg
CC(C)c1ccc(OC(Cc2ccccc2)C(=O)O)cc1 (stereo unspecified),Hypoglycemic activity,Mus musculus [7],50%
same,Inhibition,Rattus norvegicus [8],41%
same,Inhibition,Rattus norvegicus [9],25%
same,Basal uptake,3T3-L1 [5],79%
same,ED50,Rattus norvegicus [6],50 mg/kg
CC(C)c1ccc(OC(C)(Cc2ccc(Cl)cc2)C(=O)O)cc1 (stereo in doubt; 26),Basal uptake,L6 [10],101%
same,Basal uptake,L6 [11],88%
same,Hypoglycemic activity,Mus musculus [7],83%
same,Hypoglycemic activity,Mus musculus [12],104%
same,Net body weight delta,Mus musculus [13],0.4 g
same,Hypoglycemic activity,Mus musculus [2]; 5 mg/kg,77%
same,Basal uptake,3T3-L1 [14],110%
same,Basal uptake,L6 [15],96%
same,Hypoglycemic activity,Mus musculus [3],111%
same,Glucose,Mus musculus [16],223 mg/dL
same,Basal uptake,3T3-L1 [17],100%
same,Basal uptake,3T3-L1 [18],139%
same,Basal uptake,3T3-L1 [19],98%
same,Inhibition,Rattus norvegicus [20],22%
same,Inhibition,Rattus norvegicus [8],36%
same,Basal glucose,Mus musculus [21],341 mg/dL
same,Basal uptake,L6 [22],87%
same,Hypoglycemic activity,Mus musculus [23],90%
same,Food intake,Mus musculus [24],132 g 5mice-1 5days-1
same,Basal uptake,3T3-L1 [25],86%
same,Basal uptake,L6 [26],108%
same,Basal uptake,3T3-L1 [27],291%
same,Basal uptake,3T3-L1 [28],94%
same,Basal uptake,3T3-L1 [29],200%
same,Basal uptake,L6 [30],97%
same,Basal uptake,3T3-L1 [5],220%
same,Hypoglycemic activity,Mus musculus [31]; 1 mg/kg,50%
same,Basal uptake,3T3-L1 [32],106%
same,ED50,Rattus norvegicus [6],1 mg/kg
CC(C)c1ccc(OC(CCCCCc2ccc(Cl)cc2)C(=O)[O-])cc1.[Na+] (stereo unspecified),Hypoglycemic activity,Mus musculus [7],200%
same,Basal uptake,3T3-L1 [33],180%
same,Hypoglycemic activity,Mus musculus [34],35%
same,Hypoglycemic activity,Mus musculus [3],32%
same,Basal uptake,L6 [4],44%
same,ED50,Rattus norvegicus [6],10 mg/kg
CC(C)c1ccc(OC(C)(Cc2ccc(Cl)cc2)C(=O)O)cc1 (stereo in doubt; 28),Hypoglycemic activity,Mus musculus [2]; 5 mg/kg,100%
same,Hypoglycemic activity,Mus musculus [35],88%
same,Basal uptake,3T3-L1 [5],229%
same,Hypoglycemic activity,Mus musculus [31]; 1 mg/kg,47%
Cc1ccc(CC(Oc2ccc(C(C)C)cc2)C(=O)O)cc1 (stereo unspecified),Hypoglycemic activity,Mus musculus [36],113%
same,Basal uptake,3T3-L1 [5],147%
same,Glucose lowering ob/ob dose,Mus musculus [37],50 mg/kg
same,ED50,Rattus norvegicus [6],< 50 mg/kg
CC(C)c1ccc(OC(C)(Cc2cccc(C(F)(F)F)c2)C(=O)[O-])cc1.[Na+] (stereo unspecified),Hypoglycemic activity,Mus musculus [2],46%
same,Hypoglycemic activity,Mus musculus [3],64%
same,Basal uptake,L6 [38],129%
same,Basal uptake,L6 [39],104%
same,Basal uptake,L6 [40],121%
same,Hypoglycemic activity,Mus musculus [31],44%
same,ED50,Rattus norvegicus [6],5 mg/kg
CCc1cccc(CC(C)(Oc2ccc(C(C)C)cc2)C(=O)[O-])c1.[Na+] (stereo unspecified),Hypoglycemic,Mus musculus [41],<0
same,Hypoglycemic activity,Mus musculus [2],101%
same,Hypoglycemic activity,Mus musculus [3],147%
same,Basal uptake,3T3-L1 [18],131%
same,Basal uptake,3T3-L1 [19],102%
same,Basal uptake,3T3-L1 [42],117%
same,Basal uptake,3T3-L1 [27],246%
same,Basal uptake,3T3-L1 [28],127%
same,Basal uptake,3T3-L1 [29],194%
same,Hypoglycemic activity,Mus musculus [31],76%
same,ED50,Rattus norvegicus [6],0.5 mg/kg
CCc1cccc(CC(C)(Oc2ccc(Cc3ccccc3)cc2)C(=O)[O-])c1.[Na+] (stereo unspecified),Hypoglycemic activity,Mus musculus [2],102%
same,Hypoglycemic activity,Mus musculus [3],101%
same,Basal uptake,3T3-L1 [18],128%
same,Basal uptake,3T3-L1 [27],265%
same,Basal uptake,3T3-L1 [29],179%
same,Hypoglycemic activity,Mus musculus [43],52%
same,Hypoglycemic activity,Mus musculus [31],87%
same,Hypoglycemic activity,Mus musculus [44],73%
same,ED50,Rattus norvegicus [6],0.1 mg/kg
